Where a SMILES comes first, the peptide text is derived from it.
What was measured:
[1] = molecular target: T1, 20S human constitutive proteasome (CT-L activity) (Homo sapiens, UniProt P28074); experiment: Inhibition of CT-L activity of the constitutive proteasome (Suc-LLVY-AMC fluorogenic substrate); assay type: biochemical; conditions: inhibitor at 5 μM; remaining enzyme activity; read-out: % CP activity (remaining activity of the enzyme)
T1 construct: purchased Boston Biochem
Description: (§1) The computationally selected 13 compounds were tested for their inhibitory activity against the CT-L activity of the immunoproteasome. The identified active compounds were also tested for their inhibitory activity against the CT-L activity of the constitutive proteasome. For the initial activity screening, the selected compounds were dissolved in DMSO and used at a concentration of 5 μM. Epoxomicin ([…]), which reached the 100% inhibition, was used as a positive control. 20S human immunoproteasome and constitutive proteasome (Boston Biochem) were 2-fold diluted in an assay buffer (20 mM Tris/Cl, pH 8.0, 0.5 mM EDTA, 0.035% SDS).^17
(§2) Specifically, selected compounds were preincubated with 50 ng/well of the immunoproteasome or constitutive proteasome in a 96-well plate at room temperature for 13 min. 100 μM of Suc-LLVY-AMC, a fluorogenic peptide substrate for the CT-L activity, was then added to the wells. Fluorogenic signals of the free AMC (Ex: 360, Em: 460)^18 were recorded for 90 min. The initial reaction velocities (RFU/min) of each compound were calculated as a percentage of the positive control. All enzyme activity assays were carried out in triplicate.

[2] = molecular target: T2, 20S human immunoproteasome (CT-L activity) (Homo sapiens, UniProt P28062); experiment: Inhibition of CT-L activity of the immunoproteasome (Suc-LLVY-AMC fluorogenic substrate); assay type: biochemical; conditions: for inhibition of the CT-L activity of the immunoproteasome: 5 µM; for remaining activity at 5 µM: inhibitor at 5 μM, remaining enzyme activity, read-out: % IP activity (remaining activity of the enzyme); for IC50: unit inferred, read-out: IC50 values against the immunoproteasome
T2 construct: purchased Boston Biochem
Description: as §1, §2

remaining activity at 5 µM [1]	inhibition of the CT-L activity of the immunoproteasome ([2]; compound at 5 μM, % inhibition)	remaining activity at 5 µM [2]	IC50 [2]	inhibition at 5 µM ([2]; compound at 5 μM, % inhibition)	SMILES	inhibition by positive control ([2]; Epoxomicin at 1 tM (so in the source), positive control)
80%	85%	15%	1.7 µM		Cc1ccc(-c2cc(C(=O)NC[C@@H]3CCCO3)c3cc(CNS(=O)(=O)c4cccc(Cl)c4)ccc3n2)o1 [Compound 1]	
98%		64%	22 µM	36 to 85%	CCC[C@H]1C[C@H](C(=O)N[C@@H]([C@@H]2O[C@H](SC)[C@@H](O)[C@@H](O)[C@@H]2O)[C@@H](C)O)[N@@H+](C)C1 [Compound 2]	
85%	62%	38%	4.9 µM		Cc1ccc(CSC[C@@H](NC(=O)c2cc(-c3ccccc3)nc3ccccc23)C(=O)NCCCN2CCCC2=O)cc1 [Compound 3]	
98%		79%			CCCCc1ccc2nc(-c3ccc(OC)cc3)cc(C(=O)NC[C@@H](C)C(=O)N3CCC[C@@H]3CO)c2c1 [Compound 4]	
82%		81%			N=C(N)NCCC[C@@H]1NC(=O)[C@H](Cc2ccccc2)NC(=O)[C@@H](Cc2ccc(O)cc2)NC(=O)CNC(=O)[C@@H](Cc2c[nH]c3ccccc23)NC1=O [Compound 5] (HELM PEPTIDE1{F.R.[dW].G.[dY]}$PEPTIDE1,PEPTIDE1,1:R1-5:R2$$$V2.0)	
94%		86%			CC[C@H](C(=O)C(=O)NCCCN1CCOCC1)N1CC(C)C[C@@H](NC(=O)OCc2ccccc2)C1=O (stereo partly drawn) [Compound 6]	
76%		65%			NC(=O)CC[C@H](NC(=O)[C@H](Cc1cnc[nH]1)NC(=O)OCC1c2ccccc2-c2ccccc21)C(=O)N1CCC[C@H]1C(=O)O [Compound 7] (HELM PEPTIDE1{[O=C(OCC1c2ccccc2-c2ccccc21)[*:2]].H.Q.P}$$$$V2.0)	
106%		90%			CCOc1ccc2[nH]c3c(c2c1)CC(C(=O)NCC1CCCCC1)N[C@@H]3c1ccc(O)c([N+](=O)[O-])c1 (stereo partly drawn) [Compound 8]	
86%		87%			O=C(C[C@@H]1CCN(CC2CC2)C[C@@H]1[C@H]1CC(c2ccccc2Cl)=NO1)NCCc1ccccn1 [Compound 9]	
85%		82%			CCN1CCN(CCCN2C(=O)C3[C@H](C(=O)Nc4cc(C)cc(C)c4)[C@@H]4C=C[C@]3(O4)[C@H]2C(=O)N[C@@H]2CCC[C@H](C)[C@H]2C)CC1 (stereo partly drawn) [Compound 10]	
80%		80%			COc1ccc(-c2cc(C(=O)N[C@H](CCC(=O)OC3CCCCC3)C(=O)NCCc3ccncc3)c3ccccc3n2)cc1C [Compound 11]	
72%		69%			CC[C@@H](O)CNC(=O)C[C@@H]1CCN(Cc2ccc(C)s2)C[C@@H]1[C@H]1CC(c2ccccc2OC)=NO1 [Compound 12]	
88%		91%			COc1ccccc1C(=O)N/C(=C/c1ccc(Br)cc1)C(=O)Nc1ccc(S(=O)(=O)/N=c2\[nH]ccs2)cc1 [Compound 13]	
76%		70%			CCN(CC)CCNC(=O)[C@H](Cc1ccc(OCc2ccccc2)cc1)NC(=O)CCC(=O)c1ccccc1 [Compound 14]	
80%		74%			O=C(CC[C@H](NC(=O)c1cc(-c2ccoc2)nc2ccccc12)C(=O)NCc1cc(F)ccc1F)OC1CCCCC1 [Compound 15]	
50%		42%			Cc1ccc(OS(=O)(=O)c2cccc(C(F)(F)F)c2)c(-c2cc(-c3ccccc3)n(CCN[C@@H]3CCNC3)n2)c1 [Compound 16]	
41%		42%			C=C(CCCc1ccccc1)N[C@@H](Cc1ccc(Cl)cc1)C(=O)N[C@H](Cc1ccccc1)C(=O)N[C@H](CCCNC(=N)N)C(=O)N[C@@H](Cc1c[nH]c2ccccc12)C(N)=O [Compound 17]	
84%		75%			O=C1CN(/N=C/c2ccc(-c3ccc(Cl)cc3)o2)C(=O)N1CCCCN1CCN(C[C@@H](O)c2ccccc2)CC1 [Compound 18]	
67%		69%			Cc1cccc(Nc2ccccc2C(=O)N[C@H](CC[S@+](C)[O-])C(=O)N[C@H](C)c2ccc(F)cc2)c1C [Compound 19]	
					CC[C@H](C)[C@H](NC(=O)[C@H]([C@@H](C)CC)N(C)C(C)=O)C(=O)N[C@H](C(=O)N[C@@H](CC(C)C)C(=O)[C@@]1(C)CO1)[C@@H](C)O [Epoxomicin, reference compound]	100%

Reference: patent US9586946B2, “Selective immunoproteasome inhibitors with non-peptide scaffolds” (University of Kentucky Research Foundation, priority 2015, dated 2017)
